The nature of data set [1]: Solubility in water by solution precipitation method (HPLC). Type of data set: physicochemical. The following applies: water (2% DMSO), kinetic from dmso stock, from 10 mM DMSO solution, 60 minutes stirring at room temperature, compounds of the present invention. Here is the method: For solubility in water, the solubility of a compound in water was determined by a solution precipitation method.
For an HPLC system, Agilent HPLC 1100 system was used. […] For a shaker, Microincubator M-36 (Taitec) was used. For a plate, a 96-deep well plate (Nunc. 260252) was used. For a well cap, Pre-Slit Well Cap for 96 Well PP (NALGENE. 276011) was used. For a filtration plate, MultiScreen Solubility (Millipore; MSSLBPC10) was used. For dispensation, an 8-channel electronic multipipette, Biohit Proline (Biohit), and a 96-well automatic pipetting device, Biomeck 2000 (Biomeck) were used. For a reagent used, a pure solvent for DMSO ultraviolet absorption spectrum (Dojindo 349-01025) and water (MiliQ water, manufactured by Millipore).
For a DMSO solution, a sample was prepared with DMSO to be precisely 10 mM.
Precise dispensation of 10 μL of a DMSO solution into each well of a 96-well plate was performed. Following addition of 490 μL of water to each of the wells and plate-sealing with 96-well Cap (Agilent No. 5042-1389), intense stirring processing of the plate was performed for 60 minutes at room temperature on a shaker. Subsequently, 200 μL of a treatment sample was added to a plate for centrifugal filtration, and centrifugal filtration of the sample was performed to obtain a filtrate. A sample solution was made by adding 200 μl, of a 50% aqueous acetonitrile solution to the provided filtrate.
Precise dispensation of 10 μL of a DMSO solution into each well of a 96-well plate was performed.
Detection was performed using a multi-wavelength detector (190-370 nm). For a column, the above-mentioned column was used at 40° C. A flow rate was set at 1.2 ml/min, and an amount of an injected sample at 20 μL. For a moving phase, a 0.1% aqueous phosphoric acid solution as a liquid A and acetonitrile as a liquid B were used to carry out analyses in accordance with a time schedule described below.
For the analyses, the data of UV 275 nm were adopted. […] Using the calibration curve, regression calculation of concentrations in water was carried out from Area of sample solutions (water).

Data set [2] addresses T1, recombinant human liver GK (Homo sapiens, UniProt P35557).
T1 construct: made in house; host or cells: E. coli
T1 sequence (P35557 1-466 isoform P35557-2): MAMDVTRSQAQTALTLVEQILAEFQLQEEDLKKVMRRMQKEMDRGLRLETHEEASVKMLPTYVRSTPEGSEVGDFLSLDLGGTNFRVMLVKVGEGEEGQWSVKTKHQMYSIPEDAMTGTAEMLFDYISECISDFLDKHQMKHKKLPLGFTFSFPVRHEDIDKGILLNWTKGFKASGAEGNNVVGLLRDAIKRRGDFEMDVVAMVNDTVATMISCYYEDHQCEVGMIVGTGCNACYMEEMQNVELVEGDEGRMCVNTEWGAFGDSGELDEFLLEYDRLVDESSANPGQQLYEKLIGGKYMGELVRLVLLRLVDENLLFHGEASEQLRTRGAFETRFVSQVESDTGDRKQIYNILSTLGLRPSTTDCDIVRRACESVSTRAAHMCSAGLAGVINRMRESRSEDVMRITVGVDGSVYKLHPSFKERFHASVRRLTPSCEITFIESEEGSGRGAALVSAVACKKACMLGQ
The data set can be described thus: Glucokinase-activating effect (Thio-NADH coupled G6PDH assay). Type of data set: biochemical. The settings on record: final glucose concentration 2.5 mM, 30° C. The source says: The excellent glucokinase-activating effect of the compounds of formula (I) may be determined by a method described in literature (for example, Diabetes, Vol. 45, pp. 1671-1677, 1996), or in accordance with it.
The glucokinase activity may be determined not by directly measuring glucose-6-phosphate but by measuring the level of Thio-NADH, which is produced when a reporter enzyme, glucose-6-phosphate dehydrogenase produces phosphogluconolactone from glucose-6-phosphate, and based on the level, the degree of glucokinase activation by the compound tested may be determined.
In this assay, used was a recombinant human liver GK, which was expressed by E. coli as a FLAG fusion protein therein and was purified by […] M2 AFFINITY GEL (Sigma).
Using a flat-bottomed 96-well plate, the assay was carried out at 30° C. 69 μl of an assay buffer (25 mM Hepes Buffer/pH=7.2, 2 mM MgCl2, 1 mM ATP, 0.5 mM TNAD, 1 mM dithiothreitol) was put into the plate, and 1 μl of a DMSO solution of the compound or DMSO alone as a control was added thereto. Next, 20 μl of an enzyme mixture (FLAG-GK, 20 U/ml G6PDH) cooled in ice was added to it, and 10 μl of a substrate, 25 mM glucose was added to it, and the reaction was initiated (final glucose concentration=2.5 mM).
After the start of the reaction, the increase in the absorbance at 405 nm was measured for 12 minutes at intervals of 30 seconds, and the increase for the first 5 minutes was used for assessing the compound tested. FLAG-GK was added so that the absorbance increase after 5 minutes in the presence of 1% DMSO could be from 0.04 to 0.06.
The OD level of the DMSO control was set as 100%; and the OD level of the test compound at different concentrations was determined. From the OD level at each concentration, Emax (%) and EC50 (μM) were computed and used as the index of the GK-activating potency of the compound.

Data on 19 molecules can be found in US8592428B2 (MSD K. K., priority 2008, dated 2013).

Converted amounts (≈) assume the structure as drawn.

The term solubility denotes how much of the substance goes into solution per volume. A low value points to little dissolved substance. Usually EC50 stands for the concentration giving half of the maximal effect. As usually defined, the Emax is the size of the effect at its maximum, as opposed to the concentration needed.

As to `CC(=O)N1CCC[C@@H]1c1cc2[nH]c(-c3cnccn3)cc2cc1Oc1ccc(S(C)(=O)=O)nc1` [Example 2], the solubility at 60 min in data set [1] is over 170 µM. For the same molecule, in data set [2], the EC50 came out at 90 nM.

The molecule `CC(=O)N1CCC[C@@H]1c1cc2[nH]c(-c3cnc(C)cn3)cc2cc1Oc1ccc(S(C)(=O)=O)nc1` [Example 3, 6-[(R)-1-acetylpyrrolidin-2-yl]-5-(6-methylsulfonylpyridin-3-yloxy)-2-(5-methylpyrazin-2-yl)-1H-indole] came in with a solubility at 60 min in data set [1] of over 170 µM. Also, the EC50 in data set [2] came to 120 nM.

In data set [1], `CC(=O)N1CCC[C@@H]1c1cc2[nH]c(-c3ccn(C)n3)cc2cc1Oc1ccc(S(C)(=O)=O)nc1` [Example 4, 6-[(R)-1-acetylpyrrolidin-2-yl]-2-(1-methyl-1H-pyrazol-3-yl)-5-(6-methylsulfonylpyridin-3-yloxy)-1H-indole] displayed a solubility at 60 min of over 170 µM. Also, the Emax in data set [2] (OD level of DMSO control = 100%) came to 943%. Moreover, the EC50 in data set [2] is 180 nM.

In turn, `CNC(=O)c1ccc(-c2cc3cc(Oc4ccc(S(C)(=O)=O)nc4)c([C@H]4CCCN4C(C)=O)cc3[nH]2)nc1` [Example 5, 6-[(R)-1-acetylpyrrolidin-2-yl]-2-[5-(N-methylcarbamoyl)pyridin-2-yl]-5-(6-methylsulfonylpyridin-3-yloxy)-1H-indole] showed a solubility at 60 min in data set [1] of 112 µM (≈ 59.5 µg/mL).

On to `CC(=O)N1CCC[C@@H]1c1cc2[nH]c(-c3cnccn3)cc2cc1Oc1ccc(CO)nc1` [Example 6, 6-[(R)-1-acetylpyrrolidin-2-yl]-5-(6-hydroxymethylpyridin-3-yloxy)-2-(pyrazin-2-yl)-1H-indole], for which the solubility at 60 min in data set [1] is over 170 µM.

In turn, `CC(=O)N1CCC[C@@H]1c1cc2[nH]c(-c3cnc(C)cn3)cc2cc1Oc1ccc(CO)nc1` [Example 7, 6-[(R)-1-acetylpyrrolidin-2-yl]-5-(6-hydroxymethylpyridin-3-yloxy)-2-(5-methylpyrazin-2-yl)-1H-indole] displayed a solubility at 60 min in data set [1] of over 170 µM. Further, the EC50 in data set [2] was 120 nM.

With `CC(=O)N1CCC[C@@H]1c1cc2[nH]c(-c3ccc(C(C)(C)O)cn3)cc2cc1Oc1ccc(CO)nc1` [Example 8, 6-[(R)-1-acetylpyrrolidin-2-yl]-2-[5-(1,1-dimethylhydroxymethyl)pyridin-2-yl]-5-(6-hydroxymethylpyridin-3-yloxy)-1H-indole], the solubility at 60 min in data set [1] was over 170 µM.

In data set [1], `CC(=O)N1CCC[C@@H]1c1cc2[nH]c(-c3ccc(C(C)(C)O)cn3)cc2cc1Oc1ccc(S(C)(=O)=O)nc1` [Example 9, 6-[(R)-1-acetylpyrrolidin-2-yl]-2-[5-(1,1-dimethylhydroxymethyl)pyridin-2-yl]-5-(6-methylsulfonylpyridin-3-yloxy)-1H-indole] returned a solubility at 60 min of 152 µM (≈ 81.2 µg/mL). Also, the EC50 in data set [2] was found to be 130 nM.

In data set [1], `CC(=O)N1CCC[C@@H]1c1cc2[nH]c(-c3ccccn3)cc2cc1Oc1ccc(OCCO)nc1` [Example 11, 6-[(R)-1-acetylpyrrolidin-2-yl]-5-[6-(2-hydroxyethoxy)pyridin-3-yloxy]-2-(pyridin-2-yl)-1H-indole] had a solubility at 60 min of 48.6 µM (≈ 22.3 µg/mL).

As to `CC(=O)N1CCC[C@@H]1c1cc2[nH]c(-c3cnccn3)cc2cc1Oc1ccc(OCCO)nc1` [Example 12, 6-[(R)-1-acetylpyrrolidin-2-yl]-5-[6-(2-hydroxyethoxy)pyridin-3-yloxy]-2-(pyrazin-2-yl)-1H-indole], the concentration in solution in data set [1] (solubility at 60 min) was 128 µM (≈ 58.8 µg/mL).

`CC(=O)N1CCC[C@@H]1c1cc2[nH]c(-c3cnc(CO)cn3)cc2cc1Oc1ccc(OCCO)nc1` [Example 14, 6-[(R)-1-acetylpyrrolidin-2-yl]-5-[6-(2-hydroxyethoxy)pyridin-3-yloxy]-2-(5-hydroxymethylpyrazin-2-yl)-1H-indole] displayed a solubility at 60 min in data set [1] of over 170 µM.

In data set [1], `COCc1ccc(Oc2cc3cc(-c4ccccn4)[nH]c3cc2[C@H]2CCCN2C(C)=O)cn1` [Example 18, 6-[(R)-1-acetylpyrrolidin-2-yl]-5-(6-methoxymethylpyridin-3-yloxy)-2-(pyridin-2-yl)-1H-indole] gave a solubility at 60 min of 133 µM (≈ 58.8 µg/mL).

Molecule `CC(=O)N1CCC[C@@H]1c1cc2[nH]c(-c3cnccn3)cc2cc1Oc1ccc(CCO)nc1` [Example 19, 6-[(R)-1-acetylpyrrolidin-2-yl]-5-[6-(2-hydroxyethyl)pyridin-3-yloxy]-2-(pyrazin-2-yl)-1H-indole] yielded a solubility at 60 min in data set [1] of over 170 µM.

Regarding `CC(=O)N1CCC[C@@H]1c1cc2[nH]c(-c3cnccn3)cc2cc1Oc1ccc(C(=O)N2CCC2)nc1` [Example 20, 6-[(R)-1-acetylpyrrolidin-2-yl]-5-[6-(azetidin-1-ylcarbonyl)pyridin-3-yloxy]-2-(pyrazin-2-yl)-1H-indole], the solubility at 60 min in data set [1] came to 122 µM (≈ 59.1 µg/mL).

Regarding `CC(=O)N1CCC[C@@H]1c1cc2[nH]c(-c3cnc(C(C)(C)O)cn3)cc2cc1Oc1ccc(C(=O)N2CCC2)nc1` [Example 21, 6-[(R)-1-acetylpyrrolidin-2-yl]-5-[6-(azetidin-1-ylcarbonyl)pyridin-3-yloxy]-2-[5-(1,1-dimethylhydroxymethyl)pyrazin-2-yl]-1H-indole], in data set [1], the solubility at 60 min is over 170 µM.

As to `CC(=O)N1CCC[C@@H]1c1cc2[nH]c(-c3cnc(C(C)(C)O)cn3)cc2cc1Oc1ccc(S(C)(=O)=O)nc1` [Example 22, 6-[(R)-1-acetylpyrrolidin-2-yl]-2-[5-(1,1-dimethylhydroxymethyl)pyrazin-2-yl]-5-(6-methylsulfonylpyridin-3-yloxy)-1H-indole], the solubility at 60 min in data set [1] was over 170 µM.

In data set [1], `CC(=O)N1CCC[C@@H]1c1cc2[nH]c(-c3ccc(CO)cn3)cc2cc1Oc1ccc(C(=O)N2CCC2)nc1` [Example 23, 6-[(R)-1-acetylpyrrolidin-2-yl]-5-[6-(azetidin-1-ylcarbonyl)pyridin-3-yloxy]-2-(5-hydroxymethylpyridin-2-yl)-1H-indole] returned a solubility at 60 min of 77.6 µM (≈ 39.7 µg/mL).

Turning to `CC(=O)N1CCC[C@@H]1c1cc2[nH]c(-c3ccc(C(C)(C)O)cn3)cc2cc1Oc1ccc(C(=O)N2CCC2)nc1` [Example 24, 6-[(R)-1-acetylpyrrolidin-2-yl]-5-[6-(azetidin-1-ylcarbonyl)pyridin-3-yloxy]-2-[5-(1,1-dimethylhydroxymethyl)pyridin-2-yl]-1H-indole], in data set [1], the concentration in solution (solubility at 60 min) came to 142 µM (≈ 76.6 µg/mL).

In turn, `CC(=O)N1CCC[C@@H]1c1cc2[nH]c(-c3cnccn3)cc2cc1Oc1ccc(C(=O)N(C)C)nc1` [Example 25, 6-[(R)-1-acetylpyrrolidin-2-yl]-5-[6-(N,N-dimethylcarbamoyl)pyridin-3-yloxy]-2-(pyrazin-2-yl)-1H-indole] showed a solubility at 60 min in data set [1] of over 170 µM.
